Results published in ChEMBL document CHEMBL1137571 (J Med Chem, 2007).
pKi: −log10 of the molar value.

How the values were obtained:
[1] = molecular target: T1, Amine oxidase [flavin-containing] A (Homo sapiens, UniProt P21397); test: Inhibition of human recombinant MAOA expressed in Pichia pastoris
T1 sequence (P21397 whole entry): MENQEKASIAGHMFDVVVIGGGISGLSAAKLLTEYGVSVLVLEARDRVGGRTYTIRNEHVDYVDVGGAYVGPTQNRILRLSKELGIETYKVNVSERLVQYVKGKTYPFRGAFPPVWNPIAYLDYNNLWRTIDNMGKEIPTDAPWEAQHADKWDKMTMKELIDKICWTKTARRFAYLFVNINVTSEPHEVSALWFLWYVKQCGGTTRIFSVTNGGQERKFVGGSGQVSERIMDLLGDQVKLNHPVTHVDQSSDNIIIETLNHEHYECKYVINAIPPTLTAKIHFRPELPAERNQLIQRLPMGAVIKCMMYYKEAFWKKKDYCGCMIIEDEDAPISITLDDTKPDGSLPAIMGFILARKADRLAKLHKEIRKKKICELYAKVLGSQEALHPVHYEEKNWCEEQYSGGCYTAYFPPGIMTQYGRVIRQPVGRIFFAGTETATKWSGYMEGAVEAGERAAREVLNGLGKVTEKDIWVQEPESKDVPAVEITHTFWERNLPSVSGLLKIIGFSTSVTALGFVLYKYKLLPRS

[2] = molecular target: T2, Amine oxidase [flavin-containing] B (Homo sapiens, UniProt P27338); test: Inhibition of human recombinant MAOB expressed in Pichia pastoris
T2 sequence (P27338 whole entry): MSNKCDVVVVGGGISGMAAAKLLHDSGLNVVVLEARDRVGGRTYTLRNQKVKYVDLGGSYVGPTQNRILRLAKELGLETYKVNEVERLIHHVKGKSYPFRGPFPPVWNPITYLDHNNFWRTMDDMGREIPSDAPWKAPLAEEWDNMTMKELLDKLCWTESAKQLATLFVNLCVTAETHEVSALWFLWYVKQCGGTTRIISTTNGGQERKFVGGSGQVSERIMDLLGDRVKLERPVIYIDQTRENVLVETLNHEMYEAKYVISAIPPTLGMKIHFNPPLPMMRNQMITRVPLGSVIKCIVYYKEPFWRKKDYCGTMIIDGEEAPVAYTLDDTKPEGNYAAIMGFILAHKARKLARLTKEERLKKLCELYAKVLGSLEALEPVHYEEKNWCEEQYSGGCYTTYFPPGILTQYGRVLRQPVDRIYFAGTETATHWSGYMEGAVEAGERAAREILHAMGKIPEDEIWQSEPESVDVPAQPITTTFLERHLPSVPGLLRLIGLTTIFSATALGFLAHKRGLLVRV

Row | Compound | pKi [1] | pKi [2]
1 | CNCc1cc(=O)oc2cc(OCc3cccc(Cl)c3)ccc12 | 4.80 | 7.00
2 | O=Cc1cc(=O)oc2cc(OCc3cccc(Cl)c3)ccc12 | 4.96 | 6.40
